Reference: PubChem BioAssay (NCI)
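Each compound was tested at five concentrations against cells in 96-well plates for 48 hours. At the TGI there is no net growth.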

How the values were obtained:
Experiment in all cases: NCI-60 cell line screen, 48 h
BT-549 breast = tested on: BT-549 breast
MDA-MB-231 breast = tested on: MDA-MB-231 breast
SF-268 CNS = tested on: SF-268 CNS
SN12C renal = tested on: SN12C renal
SK-MEL-2 melanoma = tested on: SK-MEL-2 melanoma
ACHN renal = tested on: ACHN renal
MALME-3M melanoma = tested on: MALME-3M melanoma
T-47D breast = tested on: T-47D breast
NCI-H226 lung = tested on: NCI-H226 lung
SNB-19 CNS = tested on: SNB-19 CNS
A498 renal = tested on: A498 renal
SK-MEL-28 melanoma = tested on: SK-MEL-28 melanoma
HOP-92 NSCLC = tested on: HOP-92 NSCLC
TK-10 renal = tested on: TK-10 renal
K-562 leukemia = tested on: K-562 leukemia
HS 578T breast = tested on: HS 578T breast
COLO 205 colon = tested on: COLO 205 colon
786-0 renal = tested on: 786-0 renal
SR leukemia = tested on: SR leukemia
HCT-116 colon = tested on: HCT-116 colon
SK-MEL-5 melanoma = tested on: SK-MEL-5 melanoma
MDA-N = tested on: MDA-N
MCF7 breast = tested on: MCF7 breast
M14 melanoma = tested on: M14 melanoma
CAKI-1 renal = tested on: CAKI-1 renal
HOP-62 NSCLC = tested on: HOP-62 NSCLC
SF-295 CNS = tested on: SF-295 CNS
DU-145 prostate = tested on: DU-145 prostate
NCI-H460 lung = tested on: NCI-H460 lung
LOX IMVI melanoma = tested on: LOX IMVI melanoma
MOLT-4 leukemia = tested on: MOLT-4 leukemia
SF-539 CNS = tested on: SF-539 CNS
UACC-257 melanoma = tested on: UACC-257 melanoma
A549 NSCLC = tested on: A549 NSCLC
U251 CNS = tested on: U251 CNS
NCI-H23 lung = tested on: NCI-H23 lung
EKVX NSCLC = tested on: EKVX NSCLC
HT29 colon = tested on: HT29 colon
UACC-62 melanoma = tested on: UACC-62 melanoma
OVCAR-3 ovarian = tested on: OVCAR-3 ovarian
NCI/ADR-RES ovarian = tested on: NCI/ADR-RES ovarian
MDA-MB-435 = tested on: MDA-MB-435
UO-31 renal = tested on: UO-31 renal
OVCAR-5 ovarian = tested on: OVCAR-5 ovarian
HCC-2998 colon = tested on: HCC-2998 colon
RPMI-8226 leukemia = tested on: RPMI-8226 leukemia
SW-620 colon = tested on: SW-620 colon
OVCAR-4 ovarian = tested on: OVCAR-4 ovarian
OVCAR-8 ovarian = tested on: OVCAR-8 ovarian
NCI-H522 lung = tested on: NCI-H522 lung
SK-OV-3 ovarian = tested on: SK-OV-3 ovarian
KM12 colon = tested on: KM12 colon
RXF 393 renal = tested on: RXF 393 renal
HCT-15 colon = tested on: HCT-15 colon
HL-60(TB) leukemia = tested on: HL-60(TB) leukemia
SNB-75 CNS = tested on: SNB-75 CNS
CCRF-CEM leukemia = tested on: CCRF-CEM leukemia
IGROV1 ovarian = tested on: IGROV1 ovarian
PC-3 prostate = tested on: PC-3 prostate

CCN(CC)C(=S)SS(=O)(=O)c1cccc(N)c1 was tested, and the TGI (BT-549 breast) was > 100 µM, the TGI (MDA-MB-231 breast) was > 100 µM and the TGI (SF-268 CNS) was > 100 µM. The TGI (SN12C renal) was > 100 µM, the TGI (SK-MEL-2 melanoma) was > 100 µM and the TGI (ACHN renal) was > 100 µM. For the same compound, the TGI (MALME-3M melanoma) was > 100 µM, the TGI (T-47D breast) was > 100 µM and the TGI (NCI-H226 lung) was > 100 µM. For the same compound, the TGI (SNB-19 CNS) was > 100 µM, the TGI (A498 renal) was > 100 µM and the TGI (SK-MEL-28 melanoma) was > 100 µM. For the same compound, the TGI (HOP-92 NSCLC) was > 100 µM, the TGI (TK-10 renal) was > 100 µM and the TGI (K-562 leukemia) was > 100 µM. The TGI (HS 578T breast) was > 100 µM, the TGI (COLO 205 colon) was > 100 µM and the TGI (786-0 renal) was > 100 µM. For the same compound, the TGI (SR leukemia) was > 100 µM, the TGI (HCT-116 colon) was > 100 µM and the TGI (SK-MEL-5 melanoma) was > 100 µM. For the same compound, the TGI (MDA-N) was > 100 µM, the TGI (MCF7 breast) was > 100 µM and the TGI (M14 melanoma) was > 100 µM. For the same compound, the TGI (CAKI-1 renal) was > 100 µM, the TGI (HOP-62 NSCLC) was > 100 µM and the TGI (SF-295 CNS) was > 100 µM. The TGI (DU-145 prostate) was > 100 µM, the TGI (NCI-H460 lung) was > 100 µM and the TGI (LOX IMVI melanoma) was > 100 µM. For the same compound, the TGI (MOLT-4 leukemia) was > 100 µM, the TGI (SF-539 CNS) was > 100 µM and the TGI (UACC-257 melanoma) was > 100 µM. The TGI (A549 NSCLC) was > 100 µM, the TGI (U251 CNS) was > 100 µM and the TGI (NCI-H23 lung) was > 100 µM. The TGI (EKVX NSCLC) was > 100 µM, the TGI (HT29 colon) was > 100 µM and the TGI (UACC-62 melanoma) was > 100 µM. The TGI (OVCAR-3 ovarian) was > 100 µM, the TGI (NCI/ADR-RES ovarian) was > 100 µM and the TGI (MDA-MB-435) was > 100 µM. The TGI (UO-31 renal) was > 100 µM, the TGI (OVCAR-5 ovarian) was > 100 µM and the TGI (HCC-2998 colon) was > 100 µM. For the same compound, the TGI (RPMI-8226 leukemia) was > 100 µM, the TGI (SW-620 colon) was > 100 µM and the TGI (OVCAR-4 ovarian) was > 100 µM. The TGI (OVCAR-8 ovarian) was > 100 µM, the TGI (NCI-H522 lung) was > 100 µM and the TGI (SK-OV-3 ovarian) was > 100 µM. For the same compound, the TGI (KM12 colon) was > 100 µM, the TGI (RXF 393 renal) was > 100 µM and the TGI (HCT-15 colon) was > 100 µM.

In the case of Cc1cc(C)c2c(c1)C(=O)/C(=C/c1ccccc1C(=O)O)C2, the TGI (BT-549 breast) is reported as > 100 µM, the TGI (HL-60(TB) leukemia) is reported as > 100 µM and the TGI (MDA-MB-231 breast) is reported as > 100 µM. For the same compound, the TGI (SF-268 CNS) was > 100 µM, the TGI (SN12C renal) was > 100 µM and the TGI (SK-MEL-2 melanoma) was > 100 µM. For the same compound, the TGI (ACHN renal) was > 100 µM, the TGI (MALME-3M melanoma) was > 100 µM and the TGI (T-47D breast) was > 100 µM. For the same compound, the TGI (SNB-75 CNS) was > 100 µM, the TGI (NCI-H226 lung) was > 100 µM and the TGI (SNB-19 CNS) was > 100 µM. For the same compound, the TGI (A498 renal) was > 100 µM, the TGI (SK-MEL-28 melanoma) was > 100 µM and the TGI (HOP-92 NSCLC) was > 100 µM. For the same compound, the TGI (TK-10 renal) was > 100 µM, the TGI (K-562 leukemia) was > 100 µM and the TGI (HS 578T breast) was > 100 µM. For the same compound, the TGI (CCRF-CEM leukemia) was > 100 µM, the TGI (786-0 renal) was > 100 µM and the TGI (SR leukemia) was > 100 µM. The TGI (HCT-116 colon) was > 100 µM, the TGI (SK-MEL-5 melanoma) was > 100 µM and the TGI (MDA-N) was > 100 µM. The TGI (MCF7 breast) was > 100 µM, the TGI (IGROV1 ovarian) was > 100 µM and the TGI (M14 melanoma) was > 100 µM. For the same compound, the TGI (CAKI-1 renal) was > 100 µM, the TGI (HOP-62 NSCLC) was > 100 µM and the TGI (SF-295 CNS) was > 100 µM. The TGI (DU-145 prostate) was > 100 µM, the TGI (NCI-H460 lung) was > 100 µM and the TGI (LOX IMVI melanoma) was > 100 µM. The TGI (MOLT-4 leukemia) was > 100 µM, the TGI (SF-539 CNS) was 89.3 µM and the TGI (PC-3 prostate) was > 100 µM. The TGI (UACC-257 melanoma) was > 100 µM, the TGI (A549 NSCLC) was > 100 µM and the TGI (U251 CNS) was > 100 µM. For the same compound, the TGI (EKVX NSCLC) was > 100 µM, the TGI (HT29 colon) was > 100 µM and the TGI (UACC-62 melanoma) was > 100 µM. The TGI (OVCAR-3 ovarian) was > 100 µM, the TGI (UO-31 renal) was > 100 µM and the TGI (HCC-2998 colon) was > 100 µM. The TGI (RPMI-8226 leukemia) was > 100 µM, the TGI (SW-620 colon) was > 100 µM and the TGI (OVCAR-4 ovarian) was > 100 µM. The TGI (OVCAR-8 ovarian) was > 100 µM, the TGI (NCI-H522 lung) was > 100 µM and the TGI (KM12 colon) was > 100 µM. The TGI (RXF 393 renal) was > 100 µM and the TGI (HCT-15 colon) was > 100 µM.
